{"source": "patent US9737546B2", "about": "“Small molecules to enhance P53 activity” (THE REGENTS OF THE UNIVERSITY OF CALIFORNIA, priority 2013, dated 2017)", "key": {"[1]": {"molecular_target": "p53 R175H (Homo sapiens, UniProt P04637, R175H)", "settings": "cited from earlier work"}, "[2]": {"system": "parental Saos-2 (p53^null) cells", "experiment": "Cell proliferation of parental Saos-2 (p53null) cells, CellTiter-Glo", "assay_type": "cell-based", "settings": "cultured 3 days, max. 200 μM, Zinc Leads Now compounds (FIG. 3A)", "procedure": "FIG. 3A is a graph of reactivation activities of various compounds. Saos-2 cells expressing no p53 (p53^null), or expressing one of the cancer mutants p53-R175H or p53-G245S, were cultured for 3 days in the presence of different concentrations of compounds that had been selected from the Zinc Leads Now database, version of January, 2011, by the computational methods described below. The p53 reactivation compounds shown correspond to FIG. 1. Cell numbers were measured using the CellTiter-Glo® reagent. […] Data are presented as the standard error of the mean (n=3). Note that as of this writing eight compounds have been tested on the R175H mutant only (32CTM, 28NZ6, 27TGR, 27VFS, 35LWZ, 36EB5, 32LDE, and 32JCB).\nFIG. 3B is a graph of reactivation activities of various compounds. Experimental conditions are as in FIG. 3A, but compounds were selected from the Chembridge Express Pick Library 2012 database, by the computational methods described below. The p53 reactivation compounds shown correspond to FIG. 2.\nThe basis for our primary assay is that cancer cells cannot tolerate active p53, stop proliferation, and eventually die. […]\n(§1) Our primary screen is the p53 cancer mutant R175H, which is the single most prevalent human cancer mutation. Active compounds were re-evaluated using an independent cell line expressing a different p53 cancer mutant, G245S."}, "[3]": {"molecular_target": "T1, p53 cancer mutant R175H (Homo sapiens, UniProt P04637, R175H)", "T1 construct": "expressed in transfected cells; host or cells: Saos-2 (p53null) human osteosarcoma cells", "experiment": "p53 reactivation assay (cell killing / proliferation arrest) in Saos-2 cells expressing p53 cancer mutant R175H", "assay_type": "cell-based", "settings": "50 μM pre-heated PRIMA-1, 72 h, Saos-2 cells (FIG. 5)", "procedure": "(§2) FIG. 5 is a graph showing that PRIMA-1 acts through cysteine 124 in p53. p53null Saos-2 cells expressing wild type p53, or the indicated p53 mutants, were treated with 50 μM pre-heated PRIMA-1 (“+”, left bar) or the medium without PRIMA-1 (DMSO, “−”, right bar) for 72 h. The increase in cell number during 72 h of growth is shown. Standard deviations represent 4 independent samples (Wassman, et al., 2013).\n(§3) The increase in cell number during 72 h of growth is shown. As expected, the p53 cancer mutant R175H was activated by PRIMA-1. Mutating cysteine 124 to alanine blocked PRIMA-1 induced cancer mutant reactivation.\nThe basis for our primary assay is that cancer cells cannot tolerate active p53, stop proliferation, and eventually die. Expression of functional p53 in p53null Saos-2 osteosarcoma cells blocks their proliferation; expression of p53 cancer mutants has no effect (Wassman et al., 2013) (FIG. 5). Importantly, compounds that reactivate p53 cancer mutants specifically block proliferation of Saos-2 cells expressing p53 cancer mutants, but have no effect on growth of p53null cells at the same concentration (FIG. 3). […]\nas §1"}, "[4]": {"molecular_target": "T2, R175H-p53 with A124 (cysteine 124 to alanine) (Homo sapiens, UniProt P04637, C124A/R175H)", "T2 construct": "expressed in transfected cells; host or cells: Saos-2 (p53null) human osteosarcoma cells", "experiment": "PRIMA-1 treatment of Saos-2 cells expressing R175H-p53 with cysteine 124 changed to alanine", "assay_type": "cell-based", "settings": "50 μM pre-heated PRIMA-1, 72 h, Saos-2 cells (FIG. 5)", "procedure": "as §2\nAlthough the region around residue C124 is enriched for cancer rescue mutations, changes in position 124 have never been found, nor were they predicted by our SVM classifier, to reactivate p53 cancer mutants. Indeed, directed saturation mutagenesis of position 124 in the context of the R175H p53 cancer mutation explored all single amino acid changes at C124 and confirmed the absence of any genetic mutation rescue activity at this position. We could therefore test the computer predictions for a role of C124 in covalent drug binding in vivo by changing C124 into alanine to prevent the hypothetical thiol-mediated link with MQ.\nas §3"}, "[5]": {"system": "p53 cancer mutants", "experiment": "p53-dependent cell killing (or proliferation arrest) in Saos-2 cells expressing p53 cancer mutants", "assay_type": "cell-based, human", "procedure": "FIG. 3C is a graph of dose response curves for compounds 33BAZ and 27UDP using four different p53 cancer mutants: R175H, G245S, R248W, and R273H. Experimental conditions are as in FIG. 3A.\nFIG. 3D is a panel of graphs of broad spectrum activity for four other compounds using four different p53 cancer mutants: R175H, G245S, R248W, and R273H. Experimental conditions are as in FIG. 3C, but a single dose was assayed: 27VFS (20 μM), 35LWZ (50 μM), 27WT9 (10 μM), and 26RQZ (10 μM).\nOur previous p53 reactivation assays focused on p53-driven expression of the canonical p53 target genes p21 and PUMA (Wassman et al., 2013). However, there is significant evidence that neither p21 nor PUMA expression predict p53 anti-tumor activity (Hock & Vousden, 2012; Li et al., 2012; Valente et al., 2013). Indeed, our results comparing effects of PRIMA-1 and stictic acid support this view. […] We now use p21 and PUMA expression as an independent transcription assay for p53 cancer mutant reactivation, but not the primary selection criterion. We changed to p53-dependent cell killing (or proliferation arrest) as our main measure of efficacy because our long-term goal is anti-tumor drugs. […]\nas §1"}, "[6]": {"system": "p53-dependent reporter expression (p21 and PUMA promoter elements)", "experiment": "p21 and PUMA expression / transcriptional reporter assay based on p21 and PUMA promoter elements", "assay_type": "cell-based, human", "settings": "comparison of stictic acid and PRIMA-1", "source_text": "Our previous p53 reactivation assays focused on p53-driven expression of the canonical p53 target genes p21 and PUMA (Wassman et al., 2013). However, there is significant evidence that neither p21 nor PUMA expression predict p53 anti-tumor activity (Hock & Vousden, 2012; Li et al., 2012; Valente et al., 2013). Indeed, our results comparing effects of PRIMA-1 and stictic acid support this view. […] We now use p21 and PUMA expression as an independent transcription assay for p53 cancer mutant reactivation, but not the primary selection criterion. We changed to p53-dependent cell killing (or proliferation arrest) as our main measure of efficacy because our long-term goal is anti-tumor drugs.\nAn independent test for p53 cancer mutant reactivation is the well-established transcriptional reporter assay based on p21 and PUMA promoter elements (Wassman, et al., 2013). As above, the magnitude of reactivated p53-dependent transcription is not considered relevant for a compound's potency in cancer cell killing."}}, "data": [{"smiles": "CC(=NNC(=S)N(C)C)c1ccccn1", "note": "[NSC319725]", "values": [{"measurement": "allele specificity of p53 mutant reactivation", "setting": "[1]", "result": "R175H allele-specific"}]}, {"smiles": "C/C(=N\\NC(=S)N1CCC1)c1ccccn1", "note": "[NSC319726]", "values": [{"measurement": "allele specificity of p53 mutant reactivation", "setting": "[1]", "result": "R175H allele-specific"}]}, {"smiles": "O=C1C2CCN(CC2)C1(CO)CO", "note": "[PRIMA-1]", "values": [{"measurement": "highest compound concentration that did not significantly affect cell proliferation of the parental Saos-2 (p53null) cells", "setting": "[2]", "result": 50, "unit": "µM"}, {"measurement": "effect on cells expressing the inactive R175H p53", "setting": "[3]", "result": "reactivation and induction of cell death"}, {"measurement": "PRIMA-1 effects after introduction of A124 in R175H-p53", "setting": "[4]", "result": "completely eliminated"}, {"measurement": "p53-dependent killing/arresting of cells", "setting": "[5]; comparison of PRIMA-1 and stictic acid", "result": "considerably more potent"}]}, {"smiles": "COc1cc(C)c2c(c1C=O)Oc1c(c(C)c(O)c3c1C(O)OC3=O)OC2=O", "note": "(centres unmarked) [stictic acid]", "values": [{"measurement": "restoring p21 and PUMA expression in p53 cancer mutants", "setting": "[6]", "result": "significantly better than PRIMA-1"}, {"measurement": "p53 reactivation in biological assays", "setting": "[5]; one of 45 screened NCI DTP compounds", "result": "proved to be a p53 reactivation compound"}]}]}
